Ten compounds from US9884130B2, “Compositions for delivery of oral comfort sensations” (The Procter & Gamble Company, priority 2013, dated 2018) can be followed below.

Structures are written as SMILES. Structures can show the parent of a compound that is named as a salt. Where two headings read alike, the source gives them in different places.

The target of the experiment is T1, mouse TREK-1 (mTREK-1t) (Mus musculus, UniProt P97438).
T1 construct: (mTREK-1t) by Capital Biosciences (Rockville, Md.)
T1 sequence (P97438 with tags, fused parts or gaps limits assumed): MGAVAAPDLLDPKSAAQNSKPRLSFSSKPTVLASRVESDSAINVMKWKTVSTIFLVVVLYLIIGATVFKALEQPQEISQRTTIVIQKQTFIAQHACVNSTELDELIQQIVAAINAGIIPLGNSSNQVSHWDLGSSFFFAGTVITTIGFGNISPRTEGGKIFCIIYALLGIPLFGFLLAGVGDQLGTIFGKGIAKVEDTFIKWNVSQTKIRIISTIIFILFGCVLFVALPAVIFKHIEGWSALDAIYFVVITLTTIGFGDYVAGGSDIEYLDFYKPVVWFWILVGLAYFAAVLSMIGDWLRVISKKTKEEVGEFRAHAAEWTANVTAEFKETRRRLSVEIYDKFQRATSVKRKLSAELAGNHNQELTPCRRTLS
Briefly: FLIPR membrane potential assay in HEK-293 cells stably transfected with mTREK-1t. The format is cell-based.

The mark [1] stands for this setting: HEK293, read-out: Fluorescence per Sample concentration (percent activity relative to potassium nitrate).
[2] abbreviates: HEK293, sample concentration 50 μM, relative to 50 mM potassium nitrate, read-out: Fluorescence per Sample concentration (percent activity relative to potassium nitrate).
The mark [3] stands for this setting: HEK293, sample concentration 100 μM, relative to 50 mM potassium nitrate, read-out: Fluorescence per Sample concentration (percent activity relative to potassium nitrate).
The mark [4] stands for this setting: HEK293, sample concentration 200 μM, relative to 50 mM potassium nitrate, read-out: Fluorescence per Sample concentration (percent activity relative to potassium nitrate).
Setting [5] is: HEK293, Sample Conc. 0.0005%, read-out: Activity Level (percentage of activity relative to 100% with 50 mM potassium nitrate).
Where [6] appears, read: HEK293, Sample Conc. 0.0010%, read-out: Activity Level (percentage of activity relative to 100% with 50 mM potassium nitrate).
Where [7] appears, read: HEK293, Sample Conc. 0.0021%, read-out: Activity Level (percentage of activity relative to 100% with 50 mM potassium nitrate).
Setting [8] is: HEK293, Sample Conc. 0.0042%, read-out: Activity Level (percentage of activity relative to 100% with 50 mM potassium nitrate).
The mark [9] stands for this setting: HEK293, Sample Conc. 0.0083%, read-out: Activity Level (percentage of activity relative to 100% with 50 mM potassium nitrate).
The mark [10] stands for this setting: HEK293, Sample Conc. 0.0167%, read-out: Activity Level (percentage of activity relative to 100% with 50 mM potassium nitrate).
The mark [11] stands for this setting: HEK293, Sample Conc. 0.0330%, read-out: Activity Level (percentage of activity relative to 100% with 50 mM potassium nitrate).
Setting [12] is: HEK293, read-out: Activity Level (percentage of activity relative to 100% with 50 mM potassium nitrate).

Take `CC=Cc1ccc(OC)c(OC)c1` [1,2-Dimethoxy 4-propenyl benzene]: under setting [1], the activation at 50 µM turned out to be 5.19%, the activation at 100 µM was found to be 10.5% and the activation at 200 µM turned out to be 29.1%.

Turning to `CC(C)CC=C(C=O)C(C)C` [2-Isopropyl-5-methyl-2-hexenal], under setting [2], the activation at 50 µM was 11.1%. Further, the activation at 100 µM under setting [3] worked out at 21.1%. In addition, under setting [4], the activation at 200 µM is 46.3%. In addition, the activation at 400 µM (HEK293, sample concentration 400 μM, relative to 50 mM potassium nitrate, read-out: Fluorescence per Sample concentration (percent activity relative to potassium nitrate)) is ≥ 50%.

In the case of `Oc1ccccc1-c1ccccc1` [2-Phenylphenol], under setting [1], the activation at 50 µM turned out to be 0.35%, the activation at 100 µM was determined as 0.85%, the activation at 200 µM was 12.9% and the activation at 400 µM was ≥ 50%.

`CCCCC(CC)CCC(=O)O` (centres unmarked) [4-Ethyloctanoic Acid]: the activation at 50 µM under setting [2] was determined as 31%. Under setting [3], the activation at 100 µM came out at 44.6%. The activation at 200 µM under setting [4] was found to be 77.3%.

In the case of `CC(C)C=C(C=O)c1ccccc1` [4-Methyl-2-phenyl-2 Pentenal], under setting [2], the activation at 50 µM came out at 16.5%. In addition, under setting [3], the activation at 100 µM came out at 27.1%. The activation at 200 µM under setting [4] worked out at 52.1%.

`CCCCCC(C)CCC(=O)O` (centres unmarked) [4-Methylnonanoic acid]: under setting [2], the activation at 50 µM worked out at 24.8%. The activation at 100 µM under setting [3] was 38.5%. The activation at 200 µM under setting [4] was 79.9%.

As for `CCCCOC(=O)CC(CC(=O)OCCCC)(OC(C)=O)C(=O)OCCCC` [Acetyl Tributyl Citrate], the activation at 0.0005 % under setting [5] is 2.69%. Further, the activation at 0.001 % under setting [6] was 0.48%. Under setting [7], the activation at 0.0021 % stood at 3.06%. Further, the activation at 0.0042 % under setting [8] is 2.5%. The activation at 0.0083 % under setting [9] worked out at 5.89%. Besides, the activation at 0.0167 % under setting [10] was determined as 14.1%. The activation at 0.033 % under setting [11] was determined as 24%.

Take `CCCCC(CC)COP(=O)(O)OCC(CC)CCCC` (centres unmarked) [Bis (2-ethyl hexyl) Phosphate]: the “activity on TREK-1 compared with potassium nitrate” value (0.033% Sample concentration vs 50 mM (0.505%) potassium nitrate) was “higher activity on TREK-1 than potassium nitrate”. The “Activity Level (percentage of activity relative to 100% with 50 mM potassium nitrate)” value is given as 5.92% (Sample Conc. 0.0005%); 13.39% (Sample Conc. 0.0010%); 20.49% (Sample Conc. 0.0021%); 26.65% (Sample Conc. 0.0042%); 43.09% (Sample Conc. 0.0083%); 84.83% (Sample Conc. 0.0167%). In addition, the “Activity Level (percentage of activity relative to 100% with 50 mM potassium nitrate)” value (Sample Conc. 0.0330%) is on record as 109.75%.

For `CC(C)OC(=O)CCCCC(=O)OC(C)C` [Diisopropyl Adipate], under setting [5], the activation at 0.0005 % is 1.31%. For the same compound, under setting [6], the activation at 0.001 % was 1.38%. The activation at 0.0021 % under setting [7] was determined as 3.43%. The activation at 0.0042 % under setting [8] came to 3.56%. Further, under setting [9], the activation at 0.0083 % came out at 6.59%. The activation at 0.0167 % under setting [10] was determined as 14.8%. Further, the activation at 0.033 % under setting [11] turned out to be 30.4%.

Turning to `CCCCCCCCOC(=O)CCCCC(=O)OCCCCCCCC` [Dioctyl Adipate], the “activity on TREK-1 compared with potassium nitrate” value is reported as “higher activity on TREK-1 than potassium nitrate”. For the same compound, under setting [12], the activation at 0.0005 % amounted to 8.93%, the activation at 0.001 % worked out at 13.7%, the activation at 0.0021 % stood at 18.1% and the activation at 0.0042 % came to 22.9%. Under setting [12], the activation at 0.0083 % worked out at 38.9%, the activation at 0.0167 % was > 70% and the activation at 0.033 % was determined as 132%.
